Values quoted from earlier work as cited in patent EP2428201A1, “Oral administration of nucleoside monophosphates” (Merck Serono S.A., priority 2010, dated 2012).

Conditions: administered orally, compared to the drug given by injection

Nc1nc(Cl)nc2c1ncn2[C@H]1C[C@H](O)[C@@H](CO)O1 [cladribine, 2-chloro-2'-deoxyadenosine]
bioavailability: reduced bioavailability
